According to ChEMBL document CHEMBL1817626, “The structure-activity relationship of urea derivatives as anti-tuberculosis agents” (Bioorg Med Chem, 2011):
In brackets after ≈: the same amount, converted by molar mass. Activity calls are given as the source filed them. The calls are words filed in the database; no cut-off is given here.

Experiments:
[1] = target: T1, Hydrolase, alpha/beta hydrolase fold family (Mycobacterium tuberculosis) (UniProt O69638); assay: Inhibition of Mycobacterium tuberculosis recombinant EphE expressed in Escherichia coli BL21 using CMNPC as substrate at 10 nM after 30 mins by fluorescent assay relative to control
T1 sequence (whole entry): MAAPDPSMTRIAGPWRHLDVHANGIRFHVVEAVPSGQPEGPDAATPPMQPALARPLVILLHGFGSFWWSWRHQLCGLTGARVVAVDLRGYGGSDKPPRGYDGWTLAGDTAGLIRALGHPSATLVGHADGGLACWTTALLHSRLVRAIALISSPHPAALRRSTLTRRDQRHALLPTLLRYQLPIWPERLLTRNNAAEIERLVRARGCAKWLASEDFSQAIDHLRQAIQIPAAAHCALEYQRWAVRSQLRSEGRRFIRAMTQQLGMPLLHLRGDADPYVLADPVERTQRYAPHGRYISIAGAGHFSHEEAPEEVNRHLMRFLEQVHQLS

[2] = test system: Escherichia coli; assay: Antibacterial activity against Escherichia coli K12; format: functional; details: K-12
[3] = test system: Klebsiella pneumoniae; assay: Antibacterial activity against Klebsiella pneumoniae; format: functional
[4] = test system: Mycolicibacterium smegmatis; assay: microbe, parasite or virus in culture; details: str. MC2 155, 168 h
[5] = test system: Staphylococcus aureus; assay: Antibacterial activity against Staphylococcus aureus; format: functional
[6] = target: T2, Bifunctional epoxide hydrolase 2 (Homo sapiens, UniProt P34913); assay: Inhibition of human recombinant soluble epoxide hydrolase using CMNPC as substrate after 10 mins by fluorescent assay
T2 sequence (P34913 whole entry): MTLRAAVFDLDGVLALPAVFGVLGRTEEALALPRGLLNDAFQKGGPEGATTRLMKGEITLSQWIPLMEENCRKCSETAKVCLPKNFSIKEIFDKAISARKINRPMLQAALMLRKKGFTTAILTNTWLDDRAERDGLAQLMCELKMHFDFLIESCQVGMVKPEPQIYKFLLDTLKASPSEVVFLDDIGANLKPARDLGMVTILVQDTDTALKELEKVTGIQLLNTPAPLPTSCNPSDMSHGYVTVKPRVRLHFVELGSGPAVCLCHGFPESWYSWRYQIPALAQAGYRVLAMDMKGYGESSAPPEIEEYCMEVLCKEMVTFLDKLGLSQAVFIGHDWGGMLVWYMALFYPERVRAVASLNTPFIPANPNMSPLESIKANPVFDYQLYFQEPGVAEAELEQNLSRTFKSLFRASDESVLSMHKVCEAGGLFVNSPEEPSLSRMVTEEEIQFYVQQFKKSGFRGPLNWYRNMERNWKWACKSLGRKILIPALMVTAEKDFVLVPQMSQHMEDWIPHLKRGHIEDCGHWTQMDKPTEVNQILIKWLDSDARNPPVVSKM

[7] = test system: Pseudomonas aeruginosa; assay: Antibacterial activity against Pseudomonas aeruginosa; format: functional
[8] = test system: Enterococcus faecium; assay: Antibacterial activity against Enterococcus faecium; format: functional
[9] = test system: Vero; assay: Cytotoxicity against african green monkey Vero cells after 72 hrs by MTT assay; format: cell-based; details: Chlorocebus sabaeus
[10] = test system: Escherichia coli; assay: Antibacterial activity against Escherichia coli […] TolC; format: functional
[11] = test system: Mycobacterium tuberculosis; assay: microbe, parasite or virus in culture; details: H37Rv, 168 h
[12] = test system: Bacillus anthracis; assay: microbe, parasite or virus in culture
[13] = target: T3, Epoxide hydrolase B (Mycobacterium tuberculosis) (UniProt P95276); assay: Inhibition of Mycobacterium tuberculosis recombinant EphB expressed in Escherichia coli BL21 using CMNPC as substrate at 10 nM after 30 mins by fluorescent assay relative to control
T3 sequence (whole entry): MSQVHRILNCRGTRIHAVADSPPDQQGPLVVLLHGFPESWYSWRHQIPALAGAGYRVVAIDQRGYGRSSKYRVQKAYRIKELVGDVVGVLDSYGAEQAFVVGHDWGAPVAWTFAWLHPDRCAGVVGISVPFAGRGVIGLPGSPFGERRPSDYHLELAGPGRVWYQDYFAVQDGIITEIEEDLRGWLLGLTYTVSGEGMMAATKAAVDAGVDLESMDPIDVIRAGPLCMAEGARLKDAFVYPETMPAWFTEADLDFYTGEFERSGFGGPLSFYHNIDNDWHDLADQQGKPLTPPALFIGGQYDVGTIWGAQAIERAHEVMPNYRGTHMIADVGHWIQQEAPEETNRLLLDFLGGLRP

[14] = test system: Enterococcus faecalis; assay: Antibacterial activity against Enterococcus faecalis; format: functional

Row | Compound | inhibition [1] | MIC [2] | MIC [3] | MIC [4] | MIC [5] | IC50 [6] | MIC [7] | MIC [8] | IC50 [9] | MIC [10] | MIC [11] | MIC [12] | inhibition [13] | MIC [14]
1 | CC(C)NC(=O)NC1C2CC3CC(C2)CC1C3 (stereo unspecified) | 57.3% | > 200 mg/L | > 200 mg/L | > 100 mg/L | > 200 mg/L | 84.4 nM | > 200 mg/L | > 200 mg/L | 23.4 mg/L (≈ 99 µM) | > 200 mg/L | 50 mg/L (≈ 212 µM) | > 200 mg/L | 27.2% | > 200 mg/L
2 | CCCCCCNC(=O)NC1C2CC3CC(C2)CC1C3 (stereo unspecified) | 100% | > 200 mg/L | > 200 mg/L | 6.25 mg/L (≈ 22.4 µM) | > 200 mg/L | 1 nM | > 200 mg/L | > 200 mg/L | 175 mg/L (≈ 628 µM) | > 200 mg/L | 0.01 mg/L (≈ 0.0359 µM) | > 200 mg/L | 32% | > 200 mg/L
3 | CC1C(NC(=O)Nc2ccc(F)c(F)c2F)CC2CC1C2(C)C (stereo unspecified) | 86.1% | > 200 mg/L | > 200 mg/L | 0.8 mg/L (≈ 2.45 µM) | 3.12 mg/L (≈ 9.56 µM) | 0.4 nM | > 200 mg/L | > 200 mg/L | 16 mg/L (≈ 49 µM) | 1.6 mg/L (≈ 4.9 µM) | 0.02 mg/L (≈ 0.0613 µM) | 3.12 mg/L (≈ 9.56 µM) | 76.3% | > 200 mg/L
4 | CC(=O)c1cccc(NC(=O)NC2C3CC4CC(C3)CC2C4)c1 (stereo unspecified) | 31.4% | > 200 mg/L | > 200 mg/L | 6.25 mg/L (≈ 20 µM) | > 200 mg/L | 0.5 nM | > 200 mg/L | > 200 mg/L | 9.7 mg/L (≈ 31 µM) | > 200 mg/L | 0.1 mg/L (≈ 0.32 µM) | > 200 mg/L | 80.6% | > 200 mg/L
5 | CCCOCCNC(=O)NC12CC3CC(CC(C3)C1)C2 | 35% | > 200 mg/L | > 200 mg/L | 200 mg/L (≈ 713 µM) | > 200 mg/L | 243 nM | > 200 mg/L | > 200 mg/L | 265 mg/L (≈ 944 µM) | 200 mg/L (≈ 713 µM) | 25 mg/L (≈ 89.2 µM) | > 200 mg/L | 16.6% | > 200 mg/L
6 | Cc1ccc(NC(=O)NC(C)CCc2ccccc2)cc1Cl (stereo unspecified) | 97.4% | > 200 mg/L | > 200 mg/L | 25 mg/L (≈ 78.9 µM) | > 200 mg/L | 15 nM | > 200 mg/L | > 200 mg/L | > 400 mg/L | > 200 mg/L | 6 mg/L (≈ 18.9 µM) | > 200 mg/L | 81.9% | > 200 mg/L
7 | O=C(NCCc1ccccc1)NC1C2CC3CC(C2)CC1C3 (stereo unspecified) | 87.9% | > 200 mg/L | > 200 mg/L | 25 mg/L (≈ 83.8 µM) | > 200 mg/L | 4.5 nM | > 200 mg/L | > 200 mg/L | 30.2 mg/L (≈ 101 µM) | > 200 mg/L | 0.01 mg/L (≈ 0.0335 µM) | > 200 mg/L | 34.1% | > 200 mg/L
8 | CC(CCc1ccccc1)NC(=O)Nc1cccc(C(F)(F)F)c1F (stereo unspecified) | 63.9% | > 200 mg/L | > 200 mg/L | 6.25 mg/L (≈ 17.6 µM) | > 200 mg/L | 1.9 nM | > 200 mg/L | 100 mg/L (≈ 282 µM) | 38.5 mg/L (≈ 109 µM) | 6.25 mg/L (≈ 17.6 µM) | 1.6 mg/L (≈ 4.52 µM) | > 200 mg/L | inactive | 100 mg/L (≈ 282 µM)
9 | CC(C)(C)NC(=O)NC1C2CC3CC(C2)CC1C3 (stereo unspecified) | 55.4% | > 200 mg/L | > 200 mg/L | > 200 mg/L | > 200 mg/L | 24.2 nM | > 200 mg/L | > 200 mg/L | 372 mg/L (≈ 1490 µM) | > 200 mg/L | 12.5 mg/L (≈ 49.9 µM) | > 200 mg/L | 20.7% | > 200 mg/L
